22 compounds from US6894059B1, “Compounds and methods for treatment of asthma, allergy and inflammatory disorders” (UCB S.A., priority 1999, dated 2005) can be followed below.

Structures can show the parent of a compound that is named as a salt.

With `NC(=O)N(O)CCCc1ccc(OCCCN2CCN([C@H](c3ccccc3)c3ccc(Cl)cc3)CC2)cc1` [Compound 82, N-{3-[4-(3-{4-[(1R)(4-chlorophenyl)phenylmethyl]piperazinyl}propoxy)phenyl]propyl}amino-N-hydroxyamide], the melting point was in the range of 52 to 90 °C.
`NC(=O)N(O)CCC#Cc1ccc(OCCN2CCN([C@H](c3ccccc3)c3ccc(Cl)cc3)CC2)cc1[N+](=O)[O-]` [Compound 90, N-{4-[4-(2-{4-[(R)-(4-chlorophenyl)(phenyl)methyl]-1-piperazinyl}ethoxy)-2-nitrophenyl]-3-butynyl}-N-hydroxyurea] returned a melting point of 70 to 75 °C.
Turning to `NC(=O)c1cc(C#CCCN(O)C(N)=O)ccc1OCCN1CCN([C@H](c2ccccc2)c2ccc(Cl)cc2)CC1` (as salt: HCl) [Compound 64, 2-(2-{4-[(1R)(4-chlorophenyl)phenylmethyl]piperazinyl}ethoxy)-5-[4-(aminohydroxycarbonyl-amino)but-1-ynyl]benzamide], the melting point came out at 208 °C.
With `NC(=O)c1cc(CCCCN(O)C(N)=O)ccc1OCCCN1CCN([C@H](c2ccccc2)c2ccc(Cl)cc2)CC1` [Compound 84, 2-(3-{4-[(1R)(4-chlorophenyl)phenylmethyl]piperazinyl}propoxy)-5-[4-(aminohydroxycarbonyl-amino)butyl]benzamide], the melting point lay within 123 to 125 °C.
The compound `NC(=O)N(O)CCCCc1ccc(OCCCCN2CCN([C@H](c3ccccc3)c3ccc(Cl)cc3)CC2)cc1` (as salt: HCl) [Compound 76, N-{4-[4-(4-{4-[(1R)(4-chlorophenyl)phenylmethyl]piperazinyl}butoxy)phenyl]butyl}amino-N-hydroxyamide] yielded a melting point of 121 to 123 °C.
Turning to `NC(=O)c1cc(CCCCN(O)C(N)=O)ccc1OCCN1CCN(C(c2ccc(F)cc2)c2ccc(F)cc2)CC1` [Compound 85, 5-{4-[(aminocarbonyl) (hydroxy)amino]butyl}-2-(2-{4-[bis(4-fluorophenyl)methyl]-1-piperazinyl}ethoxy)benzamide], the melting point lay within 138 to 140 °C.
Next, `NC(=O)c1cc(C#CCCN(O)C(N)=O)ccc1OCCN1CCN([C@H](c2ccccc2)c2ccc(Cl)cc2)CC1` (as salt: tartrate) [Compound 92, 5-{4-[(aminocarbonyl) (hydroxy)amino]-1-butynyl}-2-(2-{4-[(R)-(4-chlorophenyl)(phenyl)methyl]-1-piperazinyl}ethoxy)benzamide]: 155 to 158 °C; `CC(=O)Nc1cc(C#CCCN(O)C(N)=O)ccc1OCCN1CCN([C@H](c2ccccc2)c2ccc(Cl)cc2)CC1` [Compound 77, N-[2-(2-{4-[(1R)(4-chlorophenyl)phenylmethyl]piperazinyl}ethoxy)-5-[4-(aminohydroxycarbonyl-amino)but-1-ynyl]phenyl] acetamide]: 90 to 95 °C.
Under `NC(=O)N(O)CCC#Cc1ccc(OCC#CCN2CCN([C@H](c3ccccc3)c3ccc(Cl)cc3)CC2)cc1` [Compound 95, N-(4-{4-[(4-{4-[(R)(4-chlorophenyl)(phenyl)methyl]-1-piperazinyl}-2-butynyl)oxy]phenyl}-3-butynyl)-N-hydroxyurea] stands 127 to 130 °C; under `NC(=O)N(O)CCC#Cc1ccc(OCCCCN2CCN(C(c3ccc(F)cc3)c3ccc(F)cc3)CC2)cc1` [Compound 80, amino-N-{4-[4-(4-{4-[bis(4-fluorophenyl)methyl]piperazinyl}butoxy)phenyl]but-3-ynyl}-N-hydroxyamide], 64 to 68 °C.
Next, `NC(=O)N(O)CCCCc1ccc(OCCN2CCN(C(c3ccc(F)cc3)c3ccc(F)cc3)CC2)cc1` [Compound 88, N-{4-[4-(2-{4-[bis(4-fluorophenyl)methyl]-1-piperazinyl}ethoxy)phenyl]butyl}-N-hydroxyurea]: 140 to 145 °C; `NC(=O)c1cc(C#CCCN(O)C(N)=O)ccc1OCCCN1CCN([C@H](c2ccccc2)c2ccc(Cl)cc2)CC1` [Compound 62, 2-[3-{4-[(1R)(4-chlorophenyl)phenylmethyl]piperazinyl}propoxy)-5-[4-(aminohydroxycarbonyl-amino)but-1-ynyl]benzamide]: 153 to 155 °C.
`NC(=O)N(O)CCCCc1ccc(OCCN2CCN([C@H](c3ccccc3)c3ccc(Cl)cc3)CC2)cc1` [Compound 17, N-{4-[4-(2-{4-[(1R)(4-chlorophenyl)phenylmethyl]piperazinyl}ethoxy)phenyl]butyl}amino-N-hydroxyamide] gave a melting point of 148 to 150 °C.
Compound `NC(=O)c1cc(C#CCCN(O)C(N)=O)ccc1OCCN1CCN([C@H](c2ccccc2)c2ccc(Cl)cc2)CC1` (as salt: fumarate) [Compound 89, 5-{4-[(aminocarbonyl) (hydroxy)amino]-1-butynyl}-2-(2-{4-[(R)-(4-chlorophenyl)(phenyl)methyl]-1-piperazinyl}ethoxy)benzamide] registered a melting point of 162 to 165 °C.
Next, `NC(=O)c1cc(C#CCCN(O)C(N)=O)ccc1OCCN1CCN([C@H](c2ccccc2)c2ccc(Cl)cc2)CC1` [Compound 35, 2-(2-{4-[(1R)(4-chlorophenyl)phenylmethyl]piperazinyl}ethoxy)-5-[4-(aminohydroxycarbonyl-amino)but-1-ynyl]benzamide]: 156 to 158 °C; `NC(=O)N(O)CCCc1ccc(OCCCN2CCN(C(c3ccc(F)cc3)c3ccc(F)cc3)CC2)cc1` [Compound 86, N-{3-[4-(3-{4-[bis(4-fluorophenyl)methyl]-1-piperazinyl}propoxy)phenyl]propyl}-N-hydroxyurea]: 30 to 80 °C.
Next, `NC(=O)c1cc(C#CCCN(O)C(N)=O)ccc1OCCN1CCN([C@H](c2ccccc2)c2ccc(Cl)cc2)CC1` (as salt: citrate) [Compound 93, 5-{4-[(aminocarbonyl) (hydroxy)amino]-1-butynyl}-2-(2-{4-[(R)-(4-chlorophenyl)(phenyl)methyl]-1-piperazinyl}ethoxy)benzamide]: 153 to 156 °C; `NC(=O)c1cc(C#CCCN(O)C(N)=O)ccc1OCCN1CCN([C@H](c2ccccc2)c2ccc(Cl)cc2)CC1` (as salt: maleate) [Compound 91, 5-{4-[(aminocarbonyl) (hydroxy)amino]-1-butynyl}-2-(2-{4-[(R)-(4-chlorophenyl)(phenyl)methyl]-1-piperazinyl}ethoxy)benzamide]: 169 to 172 °C; `NC(=O)N(O)CCC#Cc1ccc(OCCN2CCN(C(c3ccc(F)cc3)c3ccc(F)cc3)CC2)cc1[N+](=O)[O-]` [Compound 87, N-{4-[4-(2-{4-[bis(4-fluorophenyl)methyl]-1-piperazinyl}ethoxy)-2-nitrophenyl]-3-butynyl}-N-hydroxyurea]: 65 to 70 °C.
Next, `NC(=O)N(O)CCC#Cc1ccc(OCCCN2CCN(C(c3ccc(F)cc3)c3ccc(F)cc3)CC2)cc1` [Compound 83, amino-N-{4-[4-(3-{4-[bis(4-fluorophenyl)methyl]piperazinyl}propoxy)phenyl]but-3-ynyl}-N-hydroxyamide]: 78 °C.
With `NC(=O)N(O)CCCCc1ccc(OCCCN2CCN([C@H](c3ccccc3)c3ccc(Cl)cc3)CC2)cc1` [Compound 79, N-{4-[4-(3-{4-[(1R)(4-chlorophenyl)phenylmethyl]piperazinyl}propoxy)phenyl]butyl}amino-N-hydroxyamide], the melting point fell in the range of 60 to 65 °C.
Next, `NC(=O)N(O)CCCOc1ccc(CCCN2CCN([C@H](c3ccccc3)c3ccc(Cl)cc3)CC2)cc1` [Compound 94, N-{3-[4-[3-{4-[(R)-(4-chlorophenyl)(phenyl)methyl]-1-piperazinyl}propyl]phenoxy]propyl}-N-hydroxyurea]: 64 to 66 °C.

What is called melting point is the temperature, or range, at which the solid turns liquid.
